Tests used:
[1] = molecular target: T1, B-Raf kinase (SEQ ID NO: 1) (Homo sapiens, UniProt P15056); test: Biochemical assay for B-Raf (coupled pyruvate kinase/lactate dehydrogenase); conditions: 1 mM ATP; read-out: BRAF (inhibition of biochemical activity, IC50)
T1 construct: GST (N); purchased Sigma

[2] = molecular target: T2, C-Raf kinase (SEQ ID NO: 2) (Homo sapiens, UniProt P04049, Y340D/Y341D); test: Biochemical assay for C-Raf (coupled pyruvate kinase/lactate dehydrogenase); conditions: 1 mM ATP; read-out: CRAF (inhibition of biochemical activity, IC50)
T2 construct: C-Raf residues 306-end; Y340D, Y341D with N-; GST (N); purchased Sigma
T2 sequence (P04049 307-648 Y340D/Y341D): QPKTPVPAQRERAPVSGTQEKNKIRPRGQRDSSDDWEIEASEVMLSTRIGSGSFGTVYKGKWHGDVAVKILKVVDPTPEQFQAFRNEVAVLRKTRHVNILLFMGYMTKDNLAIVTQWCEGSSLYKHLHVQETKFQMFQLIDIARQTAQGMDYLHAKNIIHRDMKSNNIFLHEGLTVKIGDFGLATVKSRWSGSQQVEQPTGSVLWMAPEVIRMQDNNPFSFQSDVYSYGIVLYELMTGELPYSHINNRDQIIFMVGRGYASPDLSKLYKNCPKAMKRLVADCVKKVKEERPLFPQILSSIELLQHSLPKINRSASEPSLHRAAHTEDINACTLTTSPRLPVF

HCT-116 cells = test: HCT-116 cell proliferation assay; assay type: cell-based; conditions: Homo sapiens, HCT-116; 67 to 72 h incubation, resazurin; read-out: HCT-116 (inhibition of cell proliferation, IC50)
HPAF-II cells = test: HPAF-II cell proliferation assay; assay type: cell-based; conditions: Homo sapiens, HPAF-II; 115 to 120 h incubation, resazurin; read-out: HPAF-II (inhibition of cell proliferation, IC50)
Pa16c cells = test: Pa16c cell proliferation assay; assay type: cell-based; conditions: 67 to 72 h incubation, resazurin; read-out: Pa16c (inhibition of cell proliferation, IC50)
MiaPaca-2 cells = test: MiaPaca-2 cell proliferation assay; assay type: cell-based; conditions: Homo sapiens, MIA PaCa-2; 67-72 h incubation, resazurin; read-out: MiaPaca-2 (inhibition of cell proliferation, IC50)

T1 sequence (P15056 416-766): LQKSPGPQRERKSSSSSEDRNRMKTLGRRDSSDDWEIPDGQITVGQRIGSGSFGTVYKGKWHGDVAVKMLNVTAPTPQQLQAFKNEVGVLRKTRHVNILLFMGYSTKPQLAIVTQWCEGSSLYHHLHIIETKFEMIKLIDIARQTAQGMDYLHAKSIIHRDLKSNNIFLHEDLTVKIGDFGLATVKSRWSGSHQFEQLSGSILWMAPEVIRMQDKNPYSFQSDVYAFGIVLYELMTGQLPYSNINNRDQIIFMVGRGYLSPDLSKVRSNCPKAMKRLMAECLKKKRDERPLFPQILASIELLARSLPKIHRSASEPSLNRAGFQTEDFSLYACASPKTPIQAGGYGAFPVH

SMILES | IC50 [1] | IC50 [2] | IC50 (HCT-116 cells) | IC50 (HPAF-II cells) | IC50 (Pa16c cells) | IC50 (MiaPaca-2 cells)
Cc1ccc(NC(=O)c2cc(Cl)cnn2)cc1-c1cncc(N2CCOCC2)n1 [Example 65] | 1 to 10 µM | 1 to 10 µM | 1 to 10 µM | 1 to 10 µM | 1 to 10 µM | 1 to 10 µM
Cc1ccc(NC(=O)c2cc(C(C)(F)F)cnn2)cc1-c1cc(N[C@H](C)CO)nc(N2CCOCC2)c1 [Example 66] | < 0.1 µM | < 0.1 µM | < 0.1 µM | < 0.1 µM | < 0.1 µM | < 0.1 µM
Cc1ccc(NC(=O)c2cnc(N)nc2)cc1-c1cc(N[C@H](C)CO)nc(N2CCOCC2)c1 [Example 68] | 1 to 10 µM | 0.5 to 1 µM | 1 to 10 µM | 1 to 10 µM | 1 to 10 µM | 1 to 10 µM
Cc1ccc(NC(=O)c2cnc(Br)nc2)cc1-c1cc(N[C@H](C)CO)nc(N2CCOCC2)c1 [Example 69] | 1 to 10 µM | 1 to 10 µM | 1 to 10 µM | 1 to 10 µM | 1 to 10 µM | 1 to 10 µM
Cc1ccc(NC(=O)c2cc(C3CC3)cnn2)cc1-c1cc(N[C@H](C)CO)nc(N2CCOCC2)c1 [Example 70] | < 0.1 µM | < 0.1 µM | < 0.1 µM | < 0.1 µM | < 0.1 µM | < 0.1 µM
Cc1ccc(NC(=O)c2cc(Cl)cnn2)cc1-c1ccnc(N2CCOCC2)n1 [Example 71] | 1 to 10 µM | 1 to 10 µM | 1 to 10 µM | 1 to 10 µM | 1 to 10 µM | 0.1 to 0.5 µM
Cc1ccc(NC(=O)c2cc(C(C)C)cnn2)cc1-c1cc(N2CCOCC2)ncn1 [Example 72] | 0.1 to 0.5 µM | 0.1 to 0.5 µM | 1 to 10 µM | 1 to 10 µM | 1 to 10 µM | 1 to 10 µM
Cc1ccc(NC(=O)c2cc(C(C)C)cnn2)cc1-c1ccnc(N2CCOCC2)n1 [Example 73] | 1 to 10 µM | 0.1 to 0.5 µM | 0.5 to 1 µM | 1 to 10 µM | 1 to 10 µM | 1 to 10 µM
Cc1ccc(NC(=O)c2cc(Cl)cnn2)cc1-c1cc(N2CCOCC2)ncn1 [Example 74] | 1 to 10 µM | 1 to 10 µM | 1 to 10 µM | 1 to 10 µM | 1 to 10 µM | 1 to 10 µM
Cc1ccc(NC(=O)c2cc(Cl)cnn2)cc1-c1cccc(N2CCOCC2)c1 [Example 75] | 1 to 10 µM | 1 to 10 µM | 1 to 10 µM | 1 to 10 µM | 1 to 10 µM | 1 to 10 µM
Cc1ccc(NC(=O)c2cc(C(C)C)cnn2)cc1-c1cccc(N2CCOCC2)c1 [Example 76] | 0.1 to 0.5 µM | < 0.1 µM | 1 to 10 µM | 1 to 10 µM | 1 to 10 µM | 1 to 10 µM
Cc1ccc(NC(=O)c2cc(Cl)cnn2)cc1-c1cncc(N2CCOCC2)c1 [Example 77] | 1 to 10 µM | 1 to 10 µM | 1 to 10 µM | 1 to 10 µM | 1 to 10 µM | 1 to 10 µM
Cc1ccc(NC(=O)c2cc(Br)cnn2)cc1-c1cc(OCCO)nc(N2CCOCC2)c1 [Example 78] | 0.1 to 0.5 µM | < 0.1 µM | 0.5 to 1 µM | 1 to 10 µM | 1 to 10 µM | 0.5 to 1 µM
Cc1ccc(NC(=O)c2cc(C(C)C)cnn2)cc1-c1cncc(N2CCOCC2)c1 [Example 79] | 0.1 to 0.5 µM | < 0.1 µM | 1 to 10 µM | 1 to 10 µM | 1 to 10 µM | 1 to 10 µM
Cc1ccc(NC(=O)c2cc(C(N)=O)cnn2)cc1-c1cc(N[C@H](C)CO)nc(N2CCOCC2)c1 [Example 80] | 1 to 10 µM | 0.5 to 1 µM | 0.5 to 1 µM | 1 to 10 µM | 1 to 10 µM | 0.1 to 0.5 µM
Cc1ccc(NC(=O)c2cc(C#N)cnn2)cc1-c1cc(N[C@H](C)CO)nc(N2CCOCC2)c1 [Example 81] | 0.5 to 1 µM | 0.1 to 0.5 µM | < 0.1 µM | < 0.1 µM | < 0.1 µM | < 0.1 µM
Cc1ccc(NC(=O)c2cc(Br)cnn2)cc1-c1cc(N[C@H](C)CO)nc(N2CCOCC2)c1 [Example 82] | 0.1 to 0.5 µM | < 0.1 µM | 0.1 to 0.5 µM | 1 to 10 µM | 1 to 10 µM | 0.1 to 0.5 µM
Cc1ccc(NC(=O)c2cc(C3CC3)cnn2)cc1-c1ccnc(N2C[C@@H](C)O[C@@H](C)C2)c1 [Example 85] | 1 to 10 µM | 1 to 10 µM | 1 to 10 µM | 1 to 10 µM | 1 to 10 µM | 1 to 10 µM
Cc1ccc(NC(=O)c2cc(C(F)(F)F)cnn2)cc1-c1ccnc(N2C[C@H]3C[C@@H]2CO3)c1 [Example 86] | 1 to 10 µM | 1 to 10 µM | < 0.1 µM | < 0.1 µM | < 0.1 µM | < 0.1 µM
Cc1ccc(NC(=O)c2cc(C(F)(F)F)cnn2)cc1-c1ccnc(N2C[C@@H]3C[C@H]2CO3)c1 [Example 87] | 0.1 to 0.5 µM | 0.1 to 0.5 µM | < 0.1 µM | < 0.1 µM | < 0.1 µM | < 0.1 µM
Cc1ccc(NC(=O)c2cc(C3CC3)cnn2)cc1-c1ccnc(N2C[C@H]3C[C@@H]2CO3)c1 [Example 88] | 0.1 to 0.5 µM | < 0.1 µM | < 0.1 µM | < 0.1 µM | < 0.1 µM | < 0.1 µM
Cc1ccc(NC(=O)c2cc(C3CC3)cnn2)cc1-c1ccnc(N2C[C@@H]3C[C@H]2CO3)c1 [Example 89] | 0.1 to 0.5 µM | 1 to 10 µM | < 0.1 µM | < 0.1 µM | < 0.1 µM | < 0.1 µM
Cc1ccc(NC(=O)c2cc(C(F)(F)F)cnn2)cc1-c1nc(N[C@H](C)CO)cc(N2C[C@H]3C[C@@H]2CO3)n1 [Example 90] | 1 to 10 µM | 1 to 10 µM | 0.1 to 0.5 µM | 0.5 to 1 µM | 1 to 10 µM | 0.1 to 0.5 µM
CNc1cc(N2C[C@H]3C[C@@H]2CO3)nc(-c2cc(NC(=O)c3cc(C(F)(F)F)cnn3)ccc2C)n1 [Example 91] | 1 to 10 µM | 1 to 10 µM | 1 to 10 µM | 1 to 10 µM | 1 to 10 µM | 0.5 to 1 µM
CNc1cc(-c2cc(NC(=O)c3cc(C(F)(F)F)cnn3)ccc2C)cc(N2C[C@H]3C[C@@H]2CO3)n1 [Example 92] | 0.1 to 0.5 µM | 0.1 to 0.5 µM | < 0.1 µM | < 0.1 µM | < 0.1 µM | < 0.1 µM
Cc1ccc(NC(=O)c2cc(C(F)(F)F)cnn2)cc1-c1cc(N[C@H](C)CO)nc(N2C[C@H]3C[C@@H]2CO3)c1 [Example 93] | 0.1 to 0.5 µM | 0.1 to 0.5 µM | < 0.1 µM | < 0.1 µM | < 0.1 µM | < 0.1 µM
CNc1cc(-c2cc(NC(=O)c3cc(C(F)(F)F)cnn3)ccc2C)nc(N2C[C@H]3C[C@@H]2CO3)n1 [Example 94] | 1 to 10 µM | 1 to 10 µM | < 0.1 µM | < 0.1 µM | < 0.1 µM | < 0.1 µM

From patent US20250206729A1, “DUAL RAF AND TUBULIN INHIBITORS AND METHODS OF USE THEREOF” (Deciphera Pharmaceuticals, LLC, priority 2023, published 2025)
